Experimental data published in patent US20110105380A1, “Protection of Nano-Scale Particles from Immune Cell Uptake” (THE TRUSTEES OF THE UNIVERSITY OF PENNSYLVANIA, priority 2009, published 2011).

Tested on: THP-1 macrophages
Experiment: Phagocytosis of IgG-opsonized streptavidin beads with or without hCD47 by THP-1 macrophages
Format: cell-based, human
Description: The extracellular immunoglobulin-like domains of human CD47 (hCD47) was recombinantly expressed with a spacer domain (Brown et al., 1994, Protein Eng. 7:515-21; Brown et al., 1998, J. Exp. Med. 188:2083-90) plus a C-terminal biotinylation site. […] The beads were opsonized by pretreatment with anti-streptavidin to again induce FcR-mediated phagocytosis (for 45 minutes at 37° C.), and non-engulfed beads were detected with a flourescein anti-Fc against the IgG-opsonin. The number of adherent IgG-opsonized beads per phagocyte was independent of hCD47 (not shown).
For phagocytosis assays, macrophages were plated in 4 cm^2, or 2 cm^2 Lab-Tek II Chambered Coverglass (Nalge Nunc International, Naperville, Ill.) at 1.5×10^5/cm^2. Streptavidin polystyrene beads of different radius: 3.5 μm, 1.1 μm, 160 nm (Spherotech) and 100 nm (Ademtech) were added to macrophages at a ratio of 2:1, 20:1, 277:1, and 2206:1 respectively and incubate at 37° C. for 45 min. […] Non-phagocytosed beads were washed with PBS. Cells were fixed with 5% formaldehyde (Fisher Scientific) for 5 minutes, followed by immediate replacement with PBS. For differentiation of non-internalized beads, beads were labeled with a primary antibody, rabbit anti-streptavidin (Sigma) at 1:1000 in PBS for 20 min at 25° C. A second antibody, anti-rabbit R-PE (Sigma) was added at 1:1000 in PBS to the cells and incubated for an additional 20 minutes at 25° C. Cells were then washed with PBS/0.4% BSA and then quantified by light and fluorescent microscopy. At least 200 cells were scored per well and experiments were repeated at least three times.
For stimulated phagocytosis assays, beads with or without CD47 were incubated with rabbit anti-streptavidin as the IgG opsonin. Beads were opsonized at a concentration 1:1000 for 30 min at 25° C. Opsonized beads were washed 2× and resuspended in 50 μl of PBS/0.4% BSA. Phagocytes were washed with PBS and uningested beads were labeled as described above.
For cytoskeletal involvement at the phagocytic synapse, streptavidin beads opsonized with rabbit anti-streptavidin FITC. Opsonized beads of different sizes were added to THP-1 cells, PMA treated and immediately placed at 4° C. for 10 min to synchronize phagocytosis. […] For studies involving blebbistatin (EMD Biosciences), macrophages were treated for 10 min at 4° C. prior to temperature increase to 37° C. or for 45 min and 37° C. Macrophages treated with DMSO were used to verify no solvent effects.
Beads were opsonized at saturating densities of IgG, and over a 20-fold range of CD47 densities, the number of internalized beads per THP-1 was measured. […] The normal level of CD47 density found on human RBC (Subramanian et al., 2006, Blood 107(6):2548-2556) was indicated by the vertical bars and humans with certain Rhnull phenotypes with reduced levels of CD47 (Mouro-Chanteloup et al., 2003, Blood 101 (1):338-344; Arndt et al., 2004, Br. J. Haematol. 125(3):412-4) was indicated by the vertical bars. The minimum number of CD47 inhibition appears to be consistent across a 30-fold particle size range as depicted by the vertical bars.

Cc1ccc2c(c1)C(=O)C1(O)CCN(c3ccccc3)C1=N2 (stereo not drawn) [blebbistatin]
uptake of 100 nm IgG-opsonized particles (THP-1 treated with 50 μM blebbistatin vs DMSO): decrease in uptake | phagocytosis of CD47-null beads (blebbistatin 50 μM, 10 min pretreatment of THP-1): inhibited phagocytosis of CD47-null beads to a level similar as hCD47 beads | uptake of 1.1 μm IgG-opsonized particles (blebbistatin treatment, FIG. 16D): comparable results
